The subject of data set [1] is Rattus norvegicus.
Data set [2] concerns Rattus norvegicus. The source holds these as a separate data set.
In data set [3] the test system is Mus musculus. To be noted: uterotrophic, Active.
In data set [4] the test system is Rattus norvegicus. Particulars: for LEL: uterotrophic, Active.
Data set [5] deals with Rattus norvegicus. Particulars: oral; for NOAEL: diet.
The test system of data set [6] is Rattus norvegicus. Particulars: oral, M/F.
Setting [7] is: chronic, duration: 1 years, oral, blood pressure and body weight histopathological liver, kidney and spleen.
Where [8] appears, read: duration: 4 days, injection, subcutaneous.
Setting [9] is: Hershberger, duration: 10 days, oral, gavage, Sprague-Dawley, active + Androgenic + Negative + androgenic.
[10] abbreviates: duration: 1 days, injection, intraperitoneal.
Where [11] appears, read: duration: 3 days, injection, intraperitoneal.
Setting [12] is: duration: 10 days, injection, subcutaneous.
Where [13] appears, read: duration: 0 days, injection, intraperitoneal.
Setting [14] is: duration: 14 days, injection, subcutaneous.

SMILES strings stand for the structures. “And” between values parts separate entries of the source, which are not always exact repeats. Equal entries are not always repeated.

For the molecule `CC1CO1` (racemic) [(+/-)-1,2-Propylene oxide], the LOAEL in data set [1] (chronic, duration: 2 years, inhalation, intermittent, Epithelium: Unspecified) came out at 71 mg/m3; in data set [2] (chronic, duration: 2 years, inhalation, M/F, nest-like infolds of the nasal respiratory epithelium), 71 mg/m3.
On to `Cc1ccc(O)cc1C` [3,4-Dimethylphenol], for which the NOEL in data set [1] (chronic, duration: 8 months, oral, Cardiovascular system: Altered blood pressure + Organs, major: Lesions + Whole body: Decreased weight) is 1.4 mg/kg-day. In data set [2] (setting [7]), this molecule gave an LOAEL of 14 mg/kg-day and an NOEL of 1.4 mg/kg-day.
As to `CC(C)CCCCCCc1ccc(O)cc1` [4-Nonylphenol, branched], the LEL was 1000 mg/kg-day in data set [3] (duration: 3 days, injection, subcutaneous) and 190 mg/kg-day in data set [4] (duration: 3 days, oral). Besides, the LD50 in data set [5] (acute) was 1880 mg/kg. Moreover, the NOAEL in data set [5] (reproduction developmental, Sprague-Dawley) amounted to 15 mg/kg-day; in data set [5] (short-term, duration: 28 days, Crl:CD(SD) BR), 100 mg/kg-day; in data set [5] (subchronic, duration: 90 days, Sprague-Dawley) it was 50 mg/kg-day. In data set [6] (short-term, duration: 28 days, gavage, Crj:CD, Deaths + Clinical Observation: Salivation, Urinary incontinence Abnormal estrus cycle + Hematology: Ret increase, RBC decrease, Plt increase…), the NOEL stood at 10 mg/kg-day.
As for `C#C[C@]1(O)CC[C@H]2[C@@H]3CCc4cc(O)ccc4[C@H]3CC[C@@]21C` [17alpha-Ethinylestradiol], the LEL in data set [3] (duration: 0 days, oral, diet) was 0.0001 ppm; in data set [3] (setting [8]), 0.002 mg/kg-day; in data set [4] (duration: 1 days, dermal), 0.125 mg/L; in data set [4] (duration: 3 days, oral, diet), 0.001 mg/kg-day; in data set [4] (duration: 4 days, oral), 0.03 mg/kg-day; in data set [4] (duration: 4 days, oral, diet), 0.000342 mg/kg-day. The LEL stood at 0.01 mg/kg-day in data set [4] (duration: 21 days, oral) and 0.2 mg/kg-day in data set [4] (duration: 28 days, oral). The “LEL (fractional dose of pill)” value in data set [3] (duration: 3 days, oral) was found to be 0.001. In addition, the LOEL in data set [4] (setting [9]) was 50 mg/kg-day. Also, the NOEL is 10 mg/kg-day in data set [4] (setting [9]) and under 0.01 mg/kg-day in data set [6] (short-term, duration: 28 days, gavage, Crj:CD, Body Weight Changes: decrease + Food Consumption: decrease + Blood Chemistry: A/G decrease >0 Cho decrease 0 Alp increase, gamma-GTP …).
In data set [1] (subchronic, duration: 13 weeks, oral, diet, Brain: Decreased cholinesterase activity), `COP(=O)(NC(C)=O)SC` (stereo unspecified) [Acephate] gave an LOAEL of 0.192 mg/kg-day. The molecule also gave an LEL in data set [2] (subchronic, duration: 90 days, oral, diet, M, Inhibition of brain ChE) of 0.12 mg/kg-day.
With `COP(=S)(OC)Oc1cc(Cl)c(Br)cc1Cl` [Bromofos], in data set [1] (reproduction developmental, oral, diet, Blood: Decreased cholinesterase activity + Liver: Decreased cholinesterase activity), the NOAEL was found to be 5 mg/kg-day.
For `ClC1=C(Cl)[C@]2(Cl)C3C(Cl)C(Cl)CC3[C@@]1(Cl)C2(Cl)Cl` (stereo partly specified) [Chlordane], the NOEL in data set [1] (chronic, duration: 130 weeks, oral, diet, Liver: Hypertrophy) was found to be 0.055 mg/kg-day.
With `C=CC(=C)Cl` [Chloroprene], the NOAEL turned out to be 36.2 mg/m3 in data set [1] (chronic, duration: 2 years, inhalation, intermittent, Hair: Alopecia + Whole body: Decreased weight gain) and 116 mg/m3 in data set [1] (subchronic, duration: 90 days, inhalation, Olfactory epithelium: Degeneration).
As for `COP(=S)(OC)Oc1nc(Cl)c(Cl)cc1Cl` [Chlorpyrifos-methyl], the LOEL in data set [4] (Hershberger, duration: 10 days, oral, gavage, Sprague-Dawley, active + Negative + Antiandrogenic + anti-androgenic) is 50 mg/kg-day. Besides, the NOAEL in data set [1] (reproduction developmental, duration: 3 years, oral, diet, Liver: Effects + Reproduction: Decreased fertility) was determined as 1 mg/kg-day.
With `CC/C(=C(/CC)c1ccc(O)cc1)c1ccc(O)cc1` [Diethylstilbestrol], the LEL was found to be 0.0005 mg/kg-day in data set [3] (setting [10]); 0.00045 mg/animal in data set [3] (duration: 1 days, injection, subcutaneous); 0.00045 mg/animal in data set [3] (duration: 1.2 days, injection, subcutaneous); 0.1 mg/kg-day in data set [3] (setting [11]); 0.02 mg/kg-day in data set [3] (duration: 3 days, oral); 0.0006 mg/day in data set [3] (duration: 4 days, oral). In addition, the LEL was 0.004 ppm in data set [3] (duration: 5 days, oral, diet); 3.6e-05 mg and 5e-05 mg/day in data set [3] (duration: 6 days, oral, diet); 0.5 mg/kg-day in data set [3] (duration: 9 days, injection, subcutaneous); 0.004 ppm in data set [3] (duration: 9 days, oral, diet); 0.0001 mg/day in data set [3] (setting [12]); 0.004 ppm in data set [3] (duration: 11 days, oral, diet). The LEL in data set [3] (duration: 42 days, injection, subcutaneous) was 0.01 mg/kg-day; in data set [3] (oral), 0.002 mg/kg-day; in data set [4] (setting [13]), 0.05 mg; in data set [4] (duration: 1 days, dermal) it was 0.5 mg/L; in data set [4] (setting [10]) it was 0.01 mg/kg-day; in data set [4] (setting [11]) it was 0.01 mg/kg-day. The LEL in data set [4] (setting [8]) was 0.01 mg/day; in data set [4] (duration: 4 days, oral, diet), 0.005 ppm and 0.01 ppm; in data set [4] (duration: 7 days, oral) it was 0.0009 mg/kg-day; in data set [4] (duration: 8 days, injection, intraperitoneal) it was 0.01 mg/kg-day.
As to `O=c1c(-c2ccc(O)cc2)coc2cc(O)cc(O)c12` [Genistein], the LEL in data set [3] (duration: 0.17 days, injection, subcutaneous) amounted to 0.00027 mg; in data set [3] (setting [11]), 1.25 mg/day; in data set [3] (setting [8]) it was 2 mg/day; in data set [3] (duration: 4 days, oral) it was 100 mg/kg-day; in data set [3] (duration: 4 days, oral, diet), 2.5 mg/day; in data set [3] (duration: 6 days, oral, diet) it was 5.77 mg. Besides, the LEL is 200 mg/kg-day in data set [3] (duration: 7 days, oral); 0.5 mg/day in data set [3] (setting [12]); 2 mg/day and 3 mg/day and 5 mg/day in data set [3] (setting [14]); 25 mg/kg-day in data set [3] (duration: 28 days, injection, subcutaneous); 1.25 mg in data set [4] (setting [13]); 0.4 mg in data set [4] (setting [10]). Besides, the LEL in data set [4] (duration: 3.5 days, injection, subcutaneous) came to 1.25 mg/day; in data set [4] (duration: 4 days, oral), 100 mg/kg-day; in data set [4] (duration: 5 days, oral, diet), 375 mg/kg-day; in data set [4] (duration: 7 days, oral), 60 mg/kg-day; in data set [4] (setting [14]), 250 mg/kg-day; in data set [4] (duration: 30 days, oral), 125 mg/kg-day. The NOEL in data set [6] (subchronic, diet, Wistar, Body Weight Changes: decrease + Food Consumption: decrease + Hematology: RBC decrease, Ret increase, , Hgb decrease + Blood Chemistry: gamma…) was determined as 50 mg/kg-day.
In data set [1] (chronic, duration: 90 weeks, oral, diet, Thyroid: Goitrogenic effects), `S=C([S-])NCCNC(=S)[S-].S=C([S-])NCCNC(=S)[S-].[Mn+2].[Zn+2]` [Mancozeb] yielded an NOEL of 2.9 mg/kg-day.
As to `CCOP(=O)(/N=C1\SCC(C)S1)OCC` (stereo unspecified) [Mephosfolan], the NOEL in data set [1] (chronic, duration: 17 weeks, oral, diet, Blood: Decreased cholinesterase activity + Brain: Decreased cholinesterase activity + Erythrocytes: Decreased cholinesterase activity + …) was determined as 0.09 mg/kg-day.
In the case of `C=C(C)c1ccccc1` [alpha-Methylstyrene], in data set [1] (chronic, duration: 197 days, inhalation, intermittent, Kidney: Increased weight + Liver: Increased weight), the NOEL came to 970 mg/m3.

As usually defined, the LOAEL is the lowest dose or exposure tested at which an adverse effect was seen. As a reminder, the LD50 is the dose at which mortality reaches 50%. Usually NOAEL stands for the highest dose or exposure tested at which no adverse effect was seen.

For the origin of these results see EPA's ToxValDB 9.5.
